± gives the uncertainty stated by the source.
Test: xn = mol fraction of the nth substance listed

CCCCCO + CN(C)C=O
298.15 K, 101 kPa
Conditions	viscosity [mPa·s]
x2 = 0.4261	1.395 ± 0.011
x2 = 0.5467	1.568 ± 0.38

CC(C)CCl + CCCCO
viscosity [mPa·s], 101.33 kPa
Conditions	x1 = 0.1061	x1 = 0.207	x1 = 0.3058	x1 = 0.4036	x1 = 0.4999	x1 = 0.6059	x1 = 0.7007	x1 = 0.7972	x1 = 0.8971
298.15 K	1.981 ± 0.015	1.554 ± 0.013	1.233 ± 0.011	0.9932 ± 0.0093	0.8229 ± 0.0082	0.6801 ± 0.0073	0.5857 ± 0.0067	0.515 ± 0.0063	0.4612 ± 0.006
313.15 K	1.395 ± 0.011	1.121 ± 0.0094	0.9144 ± 0.0082	0.7548 ± 0.0073	0.6405 ± 0.0066	0.5441 ± 0.006	0.4768 ± 0.0057	0.4261 ± 0.0054	0.3888 ± 0.0052

CC(C)CCl + CCC(C)O
viscosity [mPa·s], 101.33 kPa
Conditions	x1 = 0.1077	x1 = 0.2064	x1 = 0.3079	x1 = 0.4066	x1 = 0.5036	x1 = 0.648	x1 = 0.7018	x1 = 0.805	x1 = 0.8972
298.15 K	1.946 ± 0.018	1.381 ± 0.013	1.046 ± 0.011	0.8335 ± 0.0091	0.7002 ± 0.008	0.5685 ± 0.0069	0.5343 ± 0.0066	0.4815 ± 0.0062	0.4478 ± 0.006
313.15 K	1.254 ± 0.012	0.9644 ± 0.0097	0.7565 ± 0.0081	0.6299 ± 0.0071	0.5461 ± 0.0064	0.4591 ± 0.0058	0.4357 ± 0.0056	0.4015 ± 0.0054	0.3778 ± 0.0052

ClC(Cl)=C(Cl)Cl + c1ccccc1
Conditions	viscosity [mPa·s]
298.15 K, 101 kPa, x2 = 0.0876	0.8015 ± 0.0068
298.15 K, 101 kPa, x2 = 0.1609	0.771 ± 0.0066
298.15 K, 101 kPa, x2 = 0.3555	0.7018 ± 0.006
298.15 K, 101 kPa, x2 = 0.452	0.6743 ± 0.0058
298.15 K, 101 kPa, x2 = 0.6216	0.6351 ± 0.0055
298.15 K, 101 kPa, x2 = 0.6602	0.6286 ± 0.0054
298.15 K, 101 kPa, x2 = 0.708	0.6209 ± 0.0054
298.15 K, 101 kPa, x2 = 0.781	0.6115 ± 0.0053
298.15 K, 101 kPa, x2 = 0.8752	0.6029 ± 0.0052
298.15 K, 101 kPa, x2 = 0.9037	0.6011 ± 0.0052
303.15 K, 101.33 kPa, x1 = 0.1913	0.577 ± 0.006
303.15 K, 101.33 kPa, x1 = 0.2749	0.584 ± 0.006
303.15 K, 101.33 kPa, x1 = 0.3761	0.605 ± 0.006
303.15 K, 101.33 kPa, x1 = 0.4668	0.624 ± 0.006
303.15 K, 101.33 kPa, x1 = 0.5756	0.648 ± 0.006
303.15 K, 101.33 kPa, x1 = 0.6664	0.675 ± 0.007
303.15 K, 101.33 kPa, x1 = 0.7757	0.712 ± 0.007
303.15 K, 101.33 kPa, x1 = 0.8828	0.746 ± 0.007

ClC(Cl)=C(Cl)Cl + CCCCOCCO
viscosity [mPa·s], 101.33 kPa
Conditions	x1 = 0.1139	x1 = 0.2084	x1 = 0.3166	x1 = 0.4172	x1 = 0.5191	x1 = 0.6215	x1 = 0.7098	x1 = 0.8124	x1 = 0.9087
303.15 K	2.167 ± 0.055	1.954 ± 0.05	1.716 ± 0.044	1.51 ± 0.039	1.327 ± 0.035	1.17 ± 0.031	1.049 ± 0.028	0.939 ± 0.025	0.854 ± 0.023
313.15 K	1.689 ± 0.044	1.543 ± 0.04	1.381 ± 0.036	1.24 ± 0.033	1.113 ± 0.03	0.998 ± 0.027	0.913 ± 0.025	0.831 ± 0.023	0.771 ± 0.021

CCCCCCCCCCCCCC + CCCCCCCC
viscosity [mPa·s]
Conditions	x1 = 0.1504	x1 = 0.3504	x1 = 0.4999	x1 = 0.6485	x1 = 0.8475	x2 = 0.367	x2 = 0.635	x2 = 0.839
293.15 K, 101.33 kPa	–	–	–	–	–	1.501 ± 0.023	1.003 ± 0.015	0.753 ± 0.012
303.16 K, 101.3 kPa	0.6303 ± 0.0065	0.8589 ± 0.0086	1.056 ± 0.01	1.276 ± 0.013	1.612 ± 0.016	–	–	–
308.16 K, 101.3 kPa	0.5925 ± 0.006	0.8026 ± 0.008	0.9789 ± 0.0097	1.176 ± 0.011	1.476 ± 0.014	–	–	–

O=[N+]([O-])c1ccccc1 + COC(C)(C)C
viscosity [mPa·s], 101.33 kPa
Conditions	x2 = 0.0921	x2 = 0.1852	x2 = 0.2942	x2 = 0.3906	x2 = 0.4845	x2 = 0.695	x2 = 0.7094	x2 = 0.8055	x2 = 0.9053
293.15 K	1.745 ± 0.18	1.535 ± 0.16	1.345 ± 0.14	1.096 ± 0.11	1.011 ± 0.1	0.7813 ± 0.079	0.659 ± 0.067	0.5509 ± 0.056	0.4676 ± 0.048
298.15 K	1.625 ± 0.16	1.402 ± 0.14	1.203 ± 0.12	0.9995 ± 0.1	0.8725 ± 0.088	–	0.6043 ± 0.061	0.507 ± 0.051	0.4335 ± 0.044

c1ccccc1 + CC(C)O
viscosity [mPa·s], 101 kPa
Conditions	x1 = 0.0575	x1 = 0.144	x1 = 0.225	x1 = 0.362	x1 = 0.558	x1 = 0.651	x1 = 0.732	x1 = 0.798	x1 = 0.886
298.15 K	1.733 ± 0.019	1.369 ± 0.015	1.139 ± 0.012	0.89 ± 0.01	0.69 ± 0.007	0.639 ± 0.007	0.614 ± 0.006	0.607 ± 0.006	0.602 ± 0.006
303.15 K	1.512 ± 0.016	1.206 ± 0.013	1.015 ± 0.011	0.8 ± 0.008	0.643 ± 0.007	0.593 ± 0.006	0.572 ± 0.006	0.565 ± 0.006	0.561 ± 0.006
308.15 K	1.325 ± 0.014	1.068 ± 0.011	0.905 ± 0.01	0.73 ± 0.008	0.592 ± 0.006	0.551 ± 0.006	0.531 ± 0.006	0.527 ± 0.006	0.524 ± 0.006
313.15 K	1.16 ± 0.012	0.948 ± 0.01	0.814 ± 0.009	0.668 ± 0.007	0.556 ± 0.006	0.511 ± 0.005	0.497 ± 0.005	0.493 ± 0.005	0.493 ± 0.005
318.15 K	1.026 ± 0.011	0.852 ± 0.009	0.732 ± 0.008	0.616 ± 0.006	0.518 ± 0.006	0.475 ± 0.005	0.465 ± 0.005	0.463 ± 0.005	0.461 ± 0.005

From the CheMixHub viscosity set
